Experimental data: US20110251286A1, “Crystalline salts and/or co-crystals of O-desmethyltramadol” (GRUENENTHAL GmbH, priority 2010, published 2011)

Assay: Release in artificial intestinal juice
Type: physicochemical
Conditions: permeable bag, amount calculated on 100 mg free base
Experimental: Investigations on release were carried out in a Sotax AT7 smart release apparatus with UV measurement (Perkin Elmer photometer).
A vessel with Wood apparatus was used (for intrinsic release).
A pressing of 0.5 cm^2 surface area (diameter 8 mm) was produced with a force of 200 N using approximately 100 mg of active ingredient.
Release was carried out in a release medium, which is composed as described below: • Intestinal juice without pancreas powder, pH 6.8 (analogous to Ph. Eur.); 250.0 ml 6.8 g of potassium dihydrogenphosphate R+0.896 g of NaOH+water to 1000.0 ml.
Release was carried out in a release volume of in each case 500±5 ml at a temperature of the release medium of 37±1° C. with a stirring speed of 100±5 rpm.
The content determination was carried out by means of spectroscopic methods (UV spectroscopy, wavelength: 271 nm, cuvette: 10 mm). Sample taking was carried out manually.
In this release experiment, the individual compounds were placed in a permeable bag in an amount in each case calculated on 100 mg of the free base.
The results, expressed in percent of the substance released, are reproduced in the following tables. In this case, the compounds denote: HCl: hydrochloride; A: cinnamate; B: palmitate; C: decanoate; E: hemi-fumarate and F: hemi-sebacate.

Row | SMILES | Release in artificial intestinal juice, percent of the substance released (t 2 min) [%] | Release in artificial intestinal juice, percent of the substance released (t 4 min) [%] | Release in artificial intestinal juice, percent of the substance released (t 6 min) [%] | Release in artificial intestinal juice, percent of the substance released (t 8 min) [%] | Release in artificial intestinal juice, percent of the substance released (t 10 min) [%] | Release in artificial intestinal juice, percent of the substance released (t 12 min) [%] | Release in artificial intestinal juice, percent of the substance released (t 15 min) [%] | Release in artificial intestinal juice, percent of the substance released (t 30 min) [%]
1 | CN(C)CC1CCCCC1(O)c1cccc(O)c1.O=C(O)C=Cc1ccccc1 (stereo not shown) [A-1] | 58.49 | 74.11 | 84.48 | 91.49 | 92.24 | 96.63 | 97.34 | 102.44
2 | CN(C)CC1CCCCC1(O)c1cccc(O)c1.O=C(O)C=Cc1ccccc1 (stereo not shown) [A-2] | 53.05 | 76.86 | 86.98 | 96.27 | 94.24 | 95.42 | 98.53 | 98.80
3 | CCCCCCCCCCCCCCCC(=O)O.CN(C)CC1CCCCC1(O)c1cccc(O)c1 [B-1] | 17.63 | 31.60 | 55.36 | 53.71 | 67.26 | 69.49 | 76.13 | 95.50
4 | CCCCCCCCCC(=O)O.CN(C)CC1CCCCC1(O)c1cccc(O)c1 (stereo not shown) [C-1] | 79.57 | 93.67 | 99.13 | 99.87 | 99.63 | 99.80 | 99.92 | 100.27
5 | CCCCCCCCCC(=O)O.CN(C)CC1CCCCC1(O)c1cccc(O)c1 (stereo not shown) [C-2] | 92.62 | 99.12 | 99.74 | 99.73 | 99.55 | 99.73 | 99.56 | 99.77
